Assay results published in patent publication US20240226342A1, “REACTIVE OXYGEN SPECIES IMAGING AGENTS” (Washington University, priority 2022, published 2024).
Values joined by “and” are separate entries in the source; they are usually repeats but may differ in a detail not shown here. Equal entries are not always repeated.

Test: Quantitative biodistribution in normal mice
Assay type: in vivo
Description: FIG. 8 is a line graph showing biodistribution of 18F-SLN128 in normal BI6 mice in accordance with the present disclosure. Shown is uptake (5 min, 60 min, 2 h) in brain and other critical organs quantified in terms of percent injected dose per gram of the tissue (% ID/g).
Lipopolysaccharide (LPS), is an endotoxin, released from Gram-negative bacteria. Next, the ability of SLN128 to detect either LPS or 3-Nitropropionic acid (3-NP) induced ROS in human cells was evaluated through live-cell fluorescence imaging. LPS is detected by toll-like receptor 4 (TLR4), a broadly expressed pattern recognition receptor found both on different cell types, including glial cells, and neurons. TLR4 engagement triggers the generation of mitochondrial superoxide from electron transport complex I, which in turn promotes bacterial killing. LPS treatment also triggers increased cytokine and chemokine expression in brain thus driving inflammation. Furthermore, 3-NP is an irreversible inhibitor of mitochondrial succinate dehydrogenase (SDH), which has been used to explore the molecular mechanisms of cell death associated with mitochondrial dysfunction and neurodegeneration. […] To this end, intracellular localization of SLN-128 in either the presence or absence of mitotracker deep red (control) was simulataneously assessed in either the LPS or 3-NP stimulated human glioblastoma U87 cells (see e.g., FIG. 4). […] Further, uptake of SLN 128 in U87 cells was compared under identical conditions with mitoSOX, a probe extensively used for assessing mROS. […] To test, whether SLN128 has ability to monitor therapeutic effects in U87 cells under identical conditions, SLN128 was incubated in either presence or absence of resveratrol (commonly used for mitigating mitochondrial ROS production) under 3 different conditions. The probe uptake was quantified as corrected total cell fluorescence (CTCF) using image J as described earlier. […] (see e.g., FIG. 6). […] Uptake in brain and other critical organs was analyzed in terms of percent injected dose per gram of the tissue (% ID/g).
For comparison, brain uptake ratios of [^18F]-AVID-45 ([^18F]-Florbetapir)(2 min/2 h) and [^18F]-Florbetaben (2 min/4 h) in normal mice are 4.07 (% ID/g (brain): 2 min: 7.33±1.54; 2 h: 1.80±0.07; 7.33/1.80; 4.07) 57 and 5.0 (% ID/g (brain): 2 min: 4.77; 4 h: 0.95; 4.77/0.95; 5.02) 58, respectively.

COc1ccc2c(c1)N(C)C(c1ccc(O)c(OCC[18F])c1)c1cccn1-2 (centres unmarked) [18F-SLN-128]
brain uptake clearance ratio relative to [18F]-AV-45 (healthy mice): 2.9 fold | brain uptake clearance ratio relative to [18F]-Florbetaben (healthy mice): 2.3 fold | clearance ratio relative to the benchmark (≥3.5) for crossing the blood-brain barrier (mouse, in vivo): 3.3 fold | brain clearance ratio 5 min/60 min (normal mice): 11.4 and 11.3 | clearance from other critical organs (normal mice): excreted from other critical organs over 1 h | defluorination / bone accumulation (normal mice): without defluorination (no bone accumulation) | brain uptake (normal mice, 5 min post tail-vein injection): 4.11±0.32 % ID/g | brain uptake (normal mice, 60 min post tail-vein injection): 0.36±0.01 % ID/g
